Data as given in patent publication US12496308B2.
Counter-ions that a name gives are not always drawn.

Tests used:
[1] = system: mouse water toxicity model; experiment: Mouse water toxicity model - survival curves; details: 0.76 mg/kg, versus placebo
Description: Mouse Water Toxicity Model—Survival Curves: The in vivo efficacies of the compounds are tested using the mouse water toxicity model, where a mouse is injected with water at 20% of its body weight. […] The resulting euvolemic hyponatremia rapidly leads to CE, making this a practical model to test an inhibitor of the CNS aquaporin, AQP4b.
The ability of mice to survive H2O toxicity is determined in three experiments using 10-12 mice each (16-19 weak old male/female). Deionized water is prepared for injection with either 0.39 mg/kg phenylbenzamide (placebo) or 0.76 mg/kg with test compound.

[2] = system: mouse water toxicity model for cerebral edema; experiment: Mouse water toxicity model - brain volume by MRI; assay type: in vivo
Description: Mouse Water Toxicity Model—Brain Volume by Magnetic Resonance Imaging (MRI): MRI is used to measure changes in brain volume in response to water shock, using the water toxicity model. As described for the survival and brain water content studies above, mice are injected, IP, with a water bolus alone or water bolus and test compound at 0.76 mg/kg, and changes in brain volume as detected by MRI are monitored. […] High resolution T2-weighted sagittal scans (resolution=0.1 mm×0.1 mm×0.7 mm) of the mouse head are obtained prior to water injection, 5.67 min post water injection, and then every 5.2 minutes until the animal expires from the water loading. Each scan contains twenty-five 0.7 mm contiguous imaging slices of which 14-15 slices contain a portion of the brain. The cross sectional area of the brain in each imaging slice is measured by manual region-of-interest selection using ImageJ. Brain volumes are then calculated for each scan by summing the individual cross sectional brain areas and multiplying by the slice thickness (0.7 mm).

[3] = system: middle cerebral artery occlusion (MCAo) model; experiment: MCAo stroke model - cerebral edema (hemispheric brain volume by MRI)
Description: To mimic this injury in mice, an intraluminal monofilament model of middle cerebral artery occlusion (MCAo) is used. Occlusion is achieved by inserting a surgical filament into the external carotid artery (ECA) and threading it forward into the internal carotid artery (ICA) until the tip blocks the origin of the MCA. […] This technique is used to study a temporary occlusion in which the MCA is blocked for one hour. The filament is then removed allowing reperfusion to occur for 24 hours before the animal's brain is imaged using T2-weighted scans in a 9.4T Bruker MRI scanner at the Case Center for Imaging Research (FIG. 7). […] Solid line highlights the region of infarct in the MCAo brain.
Cerebral Edema—Mice are given saline or treated with 2-{[3,5-bis(trifluoromethyl)phenyl]carbamoyl}-4-chlorophenyl phosphate disodium salt (Compound 5) by multi-dosing at 5 mg/kg i.p. every three hours (n=8 per treatment). […] Ipsilateral and contralateral hemispheric volume is measured from the T2-weighted MR images of mice 24 hours post-icus. Relative change in hemispheric volume is calculated as a percent of the difference between ipsilateral brain volume (Vi) and contralateral brain volume (Vc) relative to the contralateral brain volume (Percent Change in Hemispheric Brain Volume=((Vi−Vc)/Vc)×100%.

[4] = Solid state stability (hydrolysis to the phenol) at room temperature
[5] = system: middle cerebral artery occlusion (MCAo) model; experiment: MCAo stroke model - neurological outcome; details: mouse, in vivo
Description: To mimic this injury in mice, an intraluminal monofilament model of middle cerebral artery occlusion (MCAo) is used. Occlusion is achieved by inserting a surgical filament into the external carotid artery (ECA) and threading it forward into the internal carotid artery (ICA) until the tip blocks the origin of the MCA. […] This technique is used to study a temporary occlusion in which the MCA is blocked for one hour. The filament is then removed allowing reperfusion to occur for 24 hours before the animal's brain is imaged using T2-weighted scans in a 9.4T Bruker MRI scanner at the Case Center for Imaging Research (FIG. 7).
Neurological Outcome—In the same experiment as above, animals are scored for neurological outcome on a simple 5 point scale described in Manley, G. T. et al., Aquaporin-4 Deletion in Mice Reduces Brain Edema After Acute Water Intoxication and Ischemic Stroke, Nature Medicine, 6, 159-163 (2000).

[6] = Stability and pH of aqueous solutions; assay type: physicochemical; details: for longer term stability of solutions: solutions at RT
Description: Water is added and the mixture is stirred or sonicated. Yields 10 mg/ml to 20 mg/ml solutions stable for at least 24 hrs.

[7] = Bioconversion of prodrug salt in mouse plasma in vitro; assay type: in vitro ADME; details: 20° C.

**Q.** For `O=C(Nc1cc(C(F)(F)F)cc(C(F)(F)F)c1)c1cc(Cl)ccc1O` [Compound 1], which “improvement of time to 50% survival” value [1] is on record?
**A.** Its value is “roughly 52 min”.

**Q.** And the “improvement of percent survival” value ([1]; n=34)?
**A.** The value was 3.2 fold.

**Q.** And the “extent of CE during the period of observation” value ([2]; 0.76 mg/kg)?
**A.** Its value is “reduced”.

**Q.** And the “rate of CE development” value ([2]; 0.76 mg/kg IP, fit to single exponential model)?
**A.** Its value is 0.032 min⁻¹.

**Q.** And the “reduction of rate of CE development” value ([2]; 0.76 mg/kg, versus no drug)?
**A.** Its value is 2.5 fold.

**Q.** And the “Cerebral Edema Rate by MRI” value ([2]; n=14 mice)?
**A.** Its value is 0.032 min⁻¹.

**Q.** For `O=C(Nc1cc(C(F)(F)F)cc(C(F)(F)F)c1)c1cc(Cl)ccc1OP(=O)([O-])[O-].[Na+].[Na+]` [Compound 5], which “relative change in ipsilateral brain volume” value ([3]; 24 hours after MCAo, 5 mg/kg i.p. every three hours, n=8, ±SEM) is on record?
**A.** Its value is 4.2±1.7%.

**Q.** What about the “reduction in brain swelling after MCAo” value ([3]; versus saline controls) of the same molecule?
**A.** Its value is 3.2 fold.

**Q.** And the “hydrolysis in the solid state” value [4]?
**A.** The value was “about 10 % per day”.

**Q.** And the “progression to severe paralysis or death” value [5]?
**A.** Its value is “did not progress into a state of severe paralysis or death”.

**Q.** What about the “longer term stability of solutions” value [6] of the same molecule?
**A.** The value was “about 1 % per day”.

**Q.** For `O=C(Nc1cc(C(F)(F)F)cc(C(F)(F)F)c1)c1cc(Cl)ccc1OP(=O)(O)O` [Formula I], which “stability at RT” value ([4]; solid sample kept at RT) is on record?
**A.** The value was “stable at RT for a week or more”.

**Q.** And the pH of solution ([6]; 5 mg/mL in 1% Na2HPO4)?
**A.** Its pH of solution is “about 7”.

**Q.** What about the pH of solution ([6]; 5 mg/mL in 2% Na2HPO4) of the same molecule?
**A.** Its pH of solution is 7.4.

**Q.** What does the source list for `O=C(Nc1cc(C(F)(F)F)cc(C(F)(F)F)c1)c1cc(Cl)ccc1OP(=O)(O)O` [bis ethanolamine salt]?
**A.** time sufficient to render prodrug salt undetectable [7]: Less than 5 minutes; hydrolysis in the solid state [4]: about 10 % per day; Final pH of solutions ([6]; in water): about 7.5; longer term stability of solutions [6]: about 1 % per day

**Q.** With `O=C(Nc1cc(C(F)(F)F)cc(C(F)(F)F)c1)c1cc(Cl)ccc1OP(=O)(O)O` [mono ethanolamine salt] as the molecule, how does the hydrolysis ([4]; after 5 days at RT) read?
**A.** The hydrolysis was “about 10%”.

**Q.** What does the source list for `O=C(Nc1cc(C(F)(F)F)cc(C(F)(F)F)c1)c1cc(Cl)ccc1OP(=O)([O-])O.[Na+]` [mono sodium salt]?
**A.** hydrolysis in the solid state [4]: about 10 % per day; longer term stability of solutions [6]: about 1 % per day
